Columns and labels:
Sprague Dawley rats = test: Neuronal vacuolization and necrosis histopathology after single high dose injection in rats; format: in vivo, rat; details: for Clinical signs post-dose: study day 1, dexanabinol 50 mg/kg i.v. (undistinguishable from vehicle, transient); for Clinical signs post-dose / Average number of vacuoles / Average number of necrotic foci / Number of animals with necrotic foci: MK-801 5 mg/kg s.c.; for Average number of vacuoles / Average number of necrotic foci: males and females, all sections; for Average number of vacuoles / Number of animals with necrotic foci: dexanabinol 50 mg/kg i.v.; for Average number of necrotic foci: dexanabinol 50 mg/kg i.v. in CREMOPHOR EL:ethanol; for Number of animals with necrotic foci: cingulated gyrus, males and females combined
Description: The purpose of this study was to characterize the potential of dexanabinol to protect against neuronal vacuolization and cell death in the retrosplenial and cingulated neocortex regions of the brain in Sprague Dawley rats following intravenous administration of a single high dose of […]. It has previously been reported that neuronal vacuolization and cell death are among the commonly detected adverse side effects of NMDA antagonists in rodents (Olney J. W. et al., Science 244: 1360-2, 1989).
Sprague Dawley rats (140-250 g body weight, Charles River Laboratory, Mich., USA) were maintained under controlled environmental conditions, with 12:12 hour light dark cycle, and had free access to food and water. The animals were acclimated for at least seven days prior to study day 1. Animals were randomly assigned to the following treatment groups: saline (negative control), CREMOPHOR EL®:ethanol (70:30 w/w respectively supplemented with 0.5% w/v dl-α-tocopherol and 0.01% w/v edetic acid; vehicle) and 50 mg/kg dexanabinol. For all groups the volume dosage was 10 ml/kg and the treatments were administered via bolus intravenous injection into the lateral tail vein of animals. CREMOPHOR EL®:ethanol and dexanabinol 50 mg/ml were diluted 1:10 into saline prior to injection. M-801 at a dose of 5 mg/kg administered subcutaneously at a volume dosage of 5 ml/kg was used as positive control, its vehicle being saline.
Each treatment group consisted of six males and six females, which were at first analyzed separately to assess gender influence. Clinical observations, including observations for mortality or moribundity, were recorded pretest, once daily, and when a change was noted during the twice-daily observations. Body weights were recorded pretest and predose on study day 1. Six animals per sex per group per time point were submitted for necropsy at approximately 4 and 12 hours post-dose, and 1, 3, and 7 days post-dose. At the predetermined time points, the animals were humanely euthanized via intraperitoneal injection of 100 mg/kg sodium pentobarbital to achieve deep anesthesia.
Whole body perfusion were performed using heparinized saline for approximately one minute followed by 10% neutral buffered fornalin for approximately eight to ten minutes on all animals. The calvarium was removed, leaving the brain in the cranial cavity. The heads (with the brain in the cranial cavity) or brains (removed only after 24 hours left in situ in 10% neutral buffered formalin) were placed into 10% neutral buffered formalin until further process toward pathological analysis.
The brains from all animals at all time points were processed and evaluated as follows. The brains from the 4 and 12 hours time point animals were removed and sectioned using a rat brain trimming matrix to yield two coronal sections including the posterior cingulated gyrus (retrosplenial area of the brain). All sections were embedded in glycol methacrylate, sectioned at approximately 2 microns, and stained with hematoxylin and eosin. Brains from the 1, 3 and 7 days post-dose animals were removed and sectioned to yield three coronal sections spanning the brain from the posterior cingulate gyrus and extending rostral to the level of the basal nuclei. These sections were embedded in paraffin and sectioned twice at approximately 5-8 microns, with one section stained with hematoxylin and eosin and the other with Fluoro-Jade B, which selectively stains dying neuronal cells. The slides were microscopically evaluated in a blinded fashion. No statistical analyses were performed.

[1] = system: individuals suffering from severe traumatic brain injury; details: severe traumatic brain injury patients; not significant statistically; cited from earlier work
Sprague-Dawley male rats [2] = test: Cognitive impairment assessment following 4 VO, Morris water maze; format: in vivo, rat
Protocol: One week after CCA occlusion, the cognitive impairment was measured using a Morris water maze apparatus. The ability of the animals to perform in this test is predictive of their learning and memory capacity. A circular metal pool 150 cm in diameter and 74 cm in height was filled with water at 25° C. to a height of 54 cm. A platform 10 cm in diameter was placed 2 cm below the water surface. The pool was divided (virtually) into 4 equal surface areas identified by arbitrary north, south, east and west coordinates. The platform was located in the middle of the southwest quadrant 25 cm from the pool rim. The swim path was monitored by video camera connected to a computer (View Point, France). […] Animals that found the hidden platform were allowed to stay on it for 30 seconds.
Animals were tested in nine consecutive trials one week following the 4 VO and the learning capacity was measured as the amount of time spent by the animal swimming before finding the hidden platform. Each trial was performed for 1 minute and there were 5 minute intervals between the trials. One day later, eight days post-occlusion, the animals were tested again in order to assess their memory.
Three groups of at least 8 animals each were tested in this study: 1) sham operated animals; 2) operated animals treated 15 minutes before CCA occlusion with HPCD vehicle; 3) operated animals treated 15 minutes before CCA occlusion with 8 mg/kg dexanabinol, prepared and injected intravenously as previously described in example 2.
The average latency time in seconds elapsed until platform localization was calculated for each treatment group as an average of three consecutive trials. […] During the first six trials dexanabinol treated animals learned similarly to vehicle treated animals.

Sprague-Dawley male rats [3] = test: Four vessel occlusion (4 VO) in rats, neurological score; format: in vivo, rat
Description: This model was used to test the ability of dexanabinol or related compounds to act as neuroprotectant when administered prior to surgery. The blood supply to the rat brain arrives via the two vertebral and two common carotid arteries. Transient occlusion of all four vessels results in global ischemia, as would occur during cardiac arrest in humans. Global ischemia results in neurological deficits, including short-term memory deficits, and a selective loss of neurons, including pyramidal cells, in the CA1 field of the hippocampus, similarly to the situation observed in MCI. The ability of compounds to reduce the neurological deficits and increase neuronal survival in this model is considered indicative of their potential in preventing brain damage related to cardiac arrest, and is also predictive for ischemic damages and MCI caused by surgery, for instance cardiac surgery performed or not under cardiopulmonary bypass. […] Transient ischemia causes irreversible injury to a few, specific populations of highly vulnerable neurons.
Sprague-Dawley male rats (180-400 g body weight, Anilab, Israel) were anesthetized using 4% halothane for induction and 1% halothane for maintenance, in a mixture of 70% N2O and 30% O2. Animals were submitted to four-vessel occlusion according to the procedure of Pulsinelli et al. (Pulsinelli W. A. et al., Stroke 10: 267, 1979) in a two-stage operation. On the first day the vertebral arteries were occluded. A midline skin incision was performed above the spinal cord behind the skull occipital bone. Muscles were separated and cut until the C1 vertebra was isolated. The alar foramina were located and the vertebral arteries were coagulated via the alar foramina. Muscles and skin were closed in two layers. On the same day, the common carotid arteries (CCA) were isolated through a central neck midline incision. A loose suture material was positioned around them and the skin was closed.
On the second day, the animals were lightly anesthetized using ether. The skin was opened and CCA were closed for 20 minutes with arterial clips. Animals were deprived of food, with free access to water, overnight between the two stages of the study. Loss of righting reflex was the principal criterion for assuring severe forebrain ischemia in the 4 VO model in the rat. Therefore, animals not showing this sign were not included in the study. […]
Animals were monitored for their general clinical appearance at predetermined time points: before vertebral occlusion; before and 5 hours after CCA occlusion; then 1, 2, and 3 days after CCA occlusion. Body weight was recorded at baseline and at each follow-up session.
The total neurological score was calculated by adding the results of all tests for each animal and the maximal score obtainable for normal animals is 16 points. […]

Row | SMILES | Clinical signs post-dose (Sprague Dawley rats) | Neurological outcome as assessed by the Galveston Orientation and Amnesia Test [1] | Average time to localize the hidden platform (Sprague-Dawley male rats [2]; average over the ten trials measuring learning and memory, 8 mg/kg i.v., sham 34.8 seconds) [s] | Time less than sham operated animals to localize the hidden platform (Sprague-Dawley male rats [2]; average over the ten trials, 8 mg/kg i.v., difference not statistically significant) [s] | Reduction in average time for platform localization over vehicle treated animals (memory) (Sprague-Dawley male rats [2]; day 8 post-occlusion, 8 mg/kg i.v. 15 minutes before CCA occlusion) [%] | Reduction in average time for platform localization over vehicle control group (learning) (Sprague-Dawley male rats [2]; last three of nine trials, one week after 4 VO, 8 mg/kg i.v. 15 minutes before CCA occlusion) | Time to full recovery of neurological score to sham animals levels (Sprague-Dawley male rats [3]; 8 mg/kg i.v. 15 minutes before CCA occlusion) [hours] | Decrease in neurological score (Sprague-Dawley male rats [3]; 5 hours after occlusion, 8 mg/kg i.v. 15 minutes before CCA occlusion, maximal score 16 points) | Neurological score compared with sham operated group (Sprague-Dawley male rats [3]; 48 hours post-occlusion, 8 mg/kg i.v.) | Neurological outcome compared with vehicle treated or operated untreated animals (Sprague-Dawley male rats [3]; from 24 hours post-occlusion on, 8 mg/kg i.v.) | Average number of vacuoles (Sprague Dawley rats; 4 hrs post-dosing) | Average number of vacuoles (Sprague Dawley rats; 12 hrs post-dosing) | Average number of necrotic foci (Sprague Dawley rats; Day 1 post-dosing) | Average number of necrotic foci (Sprague Dawley rats; Day 3 post-dosing) | Average number of necrotic foci (Sprague Dawley rats; Day 7 post-dosing) | Number of animals with necrotic foci (Sprague Dawley rats; Day 1 post-dosing) | Number of animals with necrotic foci (Sprague Dawley rats; Day 3 post-dosing) | Number of animals with necrotic foci (Sprague Dawley rats; Day 7 post-dosing) | Highest tolerated dose in rats (Sprague Dawley rats; single dose, to the first approximation) [mg/kg]
1 | C[C@]12N[C@H](Cc3ccccc31)c1ccccc12 [MK-801, reference compound] | ataxia, tremors and prostration | – | – | – | – | – | – | – | – | – | – | – | – | – | – | – | – | – | –
2 | CCCCCCC(C)(C)c1cc(O)c2c(c1)OC(C)(C)[C@H]1CC=C(CO)C[C@H]21 [Dexanabinol, 1,1-dimethyl-(3S,4S)-7-hydroxy-Δ^6-tetrahydrocannabinol] | prostration and decreased activity | trend existed for the dexanabinol treated patients to achieve better neurological outcome | 30.8 | 4 | ~22 | more than 42% | ≤ 72 | about 4 points | not statistically different from the sham operated group | significantly better neurological outcome | None | None | 0.5 | 0.6 | >3 | 0/12 | 0/12 | 0/12 | ~50

— patent US20050192341A1, “Non-psychotropic cannabinoids for prevention of cognitive impairment” (priority 2002, published 2005)
